# Measurements taken from patent publication US11072634B2, “Inhibitors of transglutaminases” (Zedira GmbH, priority 2016, dated 2021).
# Like-named read-outs stand apart in the source and are kept apart here. *1 amine or outer side, *2 acyl side, *3 side chain or, on linkers, in order; H or OH if unused. Where a SMILES comes first, the peptide text is derived from it. [ ]: non-standard residue; d: D form. The star is where a group is joined. X4 = O=C(CC[C@H](N[*:1])C(=O)[*:2])C(=O)NC1CC1; Isonicotinoyl(3-COOH) = O=C(O)c1cnccc1C(=O)*; Pro(4-oxo) = O=C1CN[C@H](C(=O)O)C1; Chg = N[C@H](C(=O)O)C1CCCCC1; Tle = CC(C)(C)[C@H](N)C(=O)O
# Tests used:
# [1] = target: T1, recombinant human factor XIII A-subunit (rhFXIII-A, plasma transglutaminase) (Homo sapiens, UniProt P00488); test: Inhibition of rec. human coagulation factor XIII (fluorescence, Abz-NE(CAD-DNP)EQVSPLILLK-OH); assay type: biochemical; settings: read-out: IC50 FXIII
# T1 construct: His6; purchased Zedira 1027 (so in the source); T027)
# T1 sequence (P00488 39-732 limits assumed): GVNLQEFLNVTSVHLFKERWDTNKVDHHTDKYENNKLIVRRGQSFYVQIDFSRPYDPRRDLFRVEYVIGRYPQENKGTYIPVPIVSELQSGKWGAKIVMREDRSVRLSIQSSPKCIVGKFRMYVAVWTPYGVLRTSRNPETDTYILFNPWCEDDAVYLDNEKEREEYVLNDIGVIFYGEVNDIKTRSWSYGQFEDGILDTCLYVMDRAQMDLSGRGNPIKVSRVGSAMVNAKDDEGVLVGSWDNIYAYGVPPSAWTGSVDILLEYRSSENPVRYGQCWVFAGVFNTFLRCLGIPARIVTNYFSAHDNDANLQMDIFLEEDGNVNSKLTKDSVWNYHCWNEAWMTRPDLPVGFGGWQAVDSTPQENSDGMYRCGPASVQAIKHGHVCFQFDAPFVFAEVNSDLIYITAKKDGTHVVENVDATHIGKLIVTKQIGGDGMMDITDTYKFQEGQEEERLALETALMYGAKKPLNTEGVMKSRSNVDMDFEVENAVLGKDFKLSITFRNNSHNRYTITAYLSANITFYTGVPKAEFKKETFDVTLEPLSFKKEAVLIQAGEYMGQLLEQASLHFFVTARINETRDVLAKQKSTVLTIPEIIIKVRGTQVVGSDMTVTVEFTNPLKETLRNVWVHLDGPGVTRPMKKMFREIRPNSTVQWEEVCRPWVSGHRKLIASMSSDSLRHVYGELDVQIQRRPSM
# Experimental: Method for Inhibition Studies of Rec. Human Coagulation Factor XIII (Plasma Transglutaminase, rhFXIII-A)
# 50 μg lyophilized His-tagged recombinant human factor XIII A-subunit (His6-rhFXIII, Zedira product 1027) is reconstituted in H2O (volume depends on original volume before lyophilization) resulting in a buffer containing 20 mM Tris-HCl, 150 mM NaCl, 1 mM EDTA, 1 mM DTT, 189 mg/ml maltodextrin, pH=7.5. The rhFXIII stock solution is diluted in buffer (50 mM Tris-HCl, 7.5 mM CaCl2, 150 mM NaCl, pH=7.4) to give a working solution of 59 U/ml (based on the amine-incorporation activity measured using transglutaminase activity assay #1036 (Zedira GmbH), described below).
# A 10 mM inhibitor stock solution is prepared in DMSO, and from this a serial 1:2-fold dilution series is prepared also in DMSO. Each of the initial dilutions is subsequently diluted 1:50-fold with buffer (50 mM Tris-HCl, 7.5 mM CaCl2, 150 mM NaCl, pH=7.4) to yield the final working dilutions containing 2% (v/v) DMSO.
# 15 μl of inhibitor working dilution are added per well of a 96 well microtiter plate. As control, 15 μl of a 2% (v/v) DMSO solution prepared using the buffer mentioned above are added per well.
# 480 μl of His6-rhFXIII working solution and 120 μl human alpha thrombin (0.5 NIH units/μl) are added to 10.8 ml assay buffer (50 mM Tris-HCl, 7.5 mM CaCl2, 150 mM NaCl, 5 mM DTT, 13.4 mM glycine methylester, 50 μM Abz-NE(CAD-DNP)EQVSPLILLK-OH, (Zedira product A101; patent No.: EP 1781807B1), pH=7.4). From this master-mix solution, 285 μl are added per well containing the inhibitor. Increase in fluorescence is measured using […] and λem=418 nm at 37° C. for 35 min. A slope of the increase in fluorescence between 20 and 30 min is calculated for determination of the IC50 value (inhibitor concentration at which 50% of the initial FXIII activity is blocked).
# Analysis of enzymatic activity is performed by calculation of the slope of an increase in fluorescence intensity. IC50 values are calculated by plotting the enzymatic activity (as percentage from control containing 2% DMSO instead of inhibitor) against the inhibitor concentration. IC50 is defined as the inhibitor concentration blocking 50%) of initial enzyme activity.
# [2] = target: T2, recombinant human tissue transglutaminase (rhTG2) (Homo sapiens, UniProt P21980); test: Inhibition of rec. human tissue transglutaminase (fluorescence, Abz-APE(CAD-DNP)QEA-OH); assay type: biochemical
# T2 construct: purchased Zedira 1022 (so in the source); T022)
# T2 sequence (P21980 1-687): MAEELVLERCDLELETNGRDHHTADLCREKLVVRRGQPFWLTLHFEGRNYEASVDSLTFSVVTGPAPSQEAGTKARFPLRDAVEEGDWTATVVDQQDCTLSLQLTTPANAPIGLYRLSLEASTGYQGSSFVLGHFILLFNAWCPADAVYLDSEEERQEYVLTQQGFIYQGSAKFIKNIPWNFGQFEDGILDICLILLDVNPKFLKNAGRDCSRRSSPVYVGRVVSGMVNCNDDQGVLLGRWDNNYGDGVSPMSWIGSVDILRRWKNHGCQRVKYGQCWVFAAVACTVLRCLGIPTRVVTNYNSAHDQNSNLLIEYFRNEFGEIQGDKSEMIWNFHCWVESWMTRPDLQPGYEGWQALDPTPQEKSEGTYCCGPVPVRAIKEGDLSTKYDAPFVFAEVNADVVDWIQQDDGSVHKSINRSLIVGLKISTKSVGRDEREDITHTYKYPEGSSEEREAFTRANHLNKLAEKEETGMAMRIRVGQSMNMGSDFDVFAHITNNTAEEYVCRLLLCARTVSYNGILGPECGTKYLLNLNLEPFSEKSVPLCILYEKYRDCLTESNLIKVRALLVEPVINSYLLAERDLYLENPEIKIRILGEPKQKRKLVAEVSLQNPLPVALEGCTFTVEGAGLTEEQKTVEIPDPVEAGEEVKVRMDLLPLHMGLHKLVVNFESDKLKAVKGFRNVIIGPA
# In short: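 His6-rhTG2 in a master mix (50 mM Tris-HCl pH 7.4, 7.5 mM CaCl2, 150 mM NaCl, 5 mM DTT, 13.4 mM glycine methylester, 50 μM Abz-APE(CAD-DNP)QEA-OH) was added to serially diluted inhibitor. Fluorescence (ex 313/em 418 nm) was followed at 37 °C for 20 min. IC50 came from the 10–20 min slope relative to the 2% DMSO control.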
# [3] = Table 1, selectivity with respect to FXIII
Structure (SMILES),"IC50 [1, 3] [nM]","IC50 ([2]; Table 1, TG2 inhibitors) [nM]","IC50 ([1]; Table 3, FXIII inhibitors) [nM]","IC50 ([2]; Table 2, TG2 inhibitors) [nM]"
"Cc1nc(Br)sc1C(=O)N[C@@H](CCC(=O)C(N)=O)C(=O)Nc1cccn(CC(=O)NCCC(C)C)c1=O [Compound E05, (S)-2-(2-bromo-4-methylthiazole-5-carboxamido)-N1-(1-(2-(isopentylamino)-2-oxoethyl)-2-oxo-1,2-dihydropyridin-3-yl)-5-oxohexanediamide]",> 100000,150,–,–
"CC[C@@H](C)[C@H](NC(=O)[C@H](CCC(N)=O)NC(=O)[C@H](CCC(=O)C(N)=O)NC(C)=O)C(=O)N[C@H](C(N)=O)C(C)C [Compound E03, (S)-2-acetamido-N1-((S)-5-amino-1-((2S,3R)-1-((S)-1-amino-3-methyl-1-oxobutan-2-ylamino)-3-methyl-1-oxopentan-2-ylamino)-1,5-dioxopentan-2-yl)-5-oxohexanediamide]",> 100000,750,–,–
"CC(C)(C)[C@H](NC(=O)[C@H](CCC(=O)C(=O)NC1CC1)NC(=O)c1ccncc1C(=O)O)C(=O)N1CC(=O)C[C@H]1C(=O)N[C@H](C(=O)N[C@H](C(N)=O)C1CCCCC1)C1CCCCC1 [Compound E28, 4-((S)-1-((S)-1-((S)-2-((S)-2-((S)-2-amino-1-cyclohexyl-2-oxoethylamino)-1-cyclo-hexyl-2-oxoethylcarbamoyl)-4-oxopyrrolidin-1-yl)-3,3-dimethyl-1-oxobutan-2-yl-amino)-6-(cyclopropylamino)-1,5,6-trioxohexan-2-ylcarbamoyl)nicotinic acid] ({Isonicotinoyl(3-COOH)}-[X4][Tle][Pro(4-oxo)][Chg][Chg]-NH2)",–,–,275,–
"CCC(CC)CNC(=O)Cn1cccc(NC(=O)[C@H](CCC(=O)C(=O)NC)NC(=O)c2cnc3ccccc3n2)c1=O [Compound E65, (S)—N1-(1-(2-(2-ethylbutylamino)-2-oxoethyl)-2-oxo-1,2-dihydropyridin-3-yl)-N6-methyl-5-oxo-2-(quinoxaline-2-carboxamido)hexanediamide]",–,–,–,65
"CCC(CC)CNC(=O)Cn1cccc(NC(=O)[C@H](CCC(=O)C(=O)NC)NS(=O)(=O)c2nccn2C)c1=O [Compound E68, (S)—N1-(1-(2-(2-ethylbutylamino)-2-oxoethyl)-2-oxo-1,2-dihydropyridin-3-yl)-N6-methyl-2-(1-methyl-1H-imidazole-2-sulfonamido)-5-oxohexanediamide]",–,–,–,150
"CCC(CC)CNC(=O)Cn1ccc(C)c(NC(=O)[C@H](CCC(=O)C(=O)NC)NC(=O)c2cncn2C)c1=O [Compound E42, (S)—N1-(1-(2-(2-ethylbutylamino)-2-oxoethyl)-4-methyl-2-oxo-1,2-dihydropyridin-3-yl)-N6-methyl-2-(1-methyl-1H-imidazole-5-carboxamido)-5-oxohexanediamide]",–,–,–,1600
"COC(=O)[C@H](CC(C)C)NC(=O)[C@@H]1CCCN1C(=O)[C@@H](NC(=O)[C@H](CCC(=O)C(N)=O)NC(C)=O)C(C)C [Compound E01, (S)-methyl 2-((S)-1-((S)-2-((S)-2-acetamido-6-amino-5,6-dioxohexanamido)-3-methylbutanoyl)pyrrolidine-2-carboxamido)-4-methylpentanoate]",> 100000,600,–,–
"CCC(CC)CNC(=O)Cn1cccc(NC(=O)[C@H](CCC(=O)C(=O)NC2CC2)NC(=O)c2ccccc2)c1=O [Compound E23, (S)-2-benzamido-N6-cyclopropyl-N1-(1-(2-(2-ethylbutylamino)-2-oxoethyl)-2-oxo-1,2-dihydropyridin-3-yl)-5-oxonexanediamide]",–,–,–,1100

# The remaining lines, values ahead:
"IC50 [1, 3] [nM]","IC50 ([2]; Table 1, TG2 inhibitors) [nM]","IC50 ([1]; Table 3, FXIII inhibitors) [nM]","IC50 ([2]; Table 2, TG2 inhibitors) [nM]",Structure (SMILES)
> 100000,50,–,–,"CCC(CC)CNC(=O)Cn1cccc(NC(=O)[C@H](CCC(=O)C(=O)NC)NC(=O)c2cncn2C)c1=O [Compound E16, (S)—N1-(1-(2-(2-ethylbutylamino)-2-oxoethyl)-2-oxo-1,2-dihydropyridin-3-yl)-N6-methyl-2-(1-methyl-1H-imidazole-5-carboxamido)-5-oxonexanediamide]"
> 100000,100,–,–,"CCC(CC)CNC(=O)Cn1cccc(NC(=O)[C@H](CCC(=O)C(N)=O)NC(=O)c2cncn2C)c1=O [Compound E04, (S)—N1-(1-(2-(2-ethylbutylamino)-2-oxoethyl)-2-oxo-1,2-dihydropyridin-3-yl)-2-(1-methyl-1H-imidazole-5-carboxamido)-5-oxohexanediamide]"
–,–,–,135,"CCC(CC)CNC(=O)Cn1cccc(NC(=O)[C@H](CCC(=O)C(=O)NCOC)NC(=O)c2cncn2C)c1=O [Compound E39, (S)—N1-(1-(2-(2-ethylbutylamino)-2-oxoethyl)-2-oxo-1,2-dihydropyridin-3-yl)-N6-(methoxymethyl)-2-(1-methyl-1H-imidazole-5-carboxamido)-5-oxohexanediamide]"
–,–,–,135,"CCC(CC)CNC(=O)Cn1cccc(NC(=O)[C@H](CCC(=O)C(=O)CC(C)C)NC(=O)c2cncn2C)c1=O [Compound E80, (S)—N-(1-(1-(2-(2-ethylbutylamino)-2-oxoethyl)-2-oxo-1,2-dihydropyridin-3-ylamino)-8-methyl-1,5,6-trioxononan-2-yl)-1-methyl-1H-imidazole-5-carboxamide]"
